Legend:
Format in all cases: cell-based, mouse
[1] = tested on: β-galactosidase in CMV-LacZ C2C12 myoblasts; assay: CMV-LacZ secondary screen in C2C12 myoblasts (β-Gal stabilizing assay); settings: CMV-LacZ C2C12 myoblasts
How it was run: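 A secondary screen identifies compounds that stabilize β-gal independently of the native promoter, using CMV-LacZ C2C12 cells. Curves span 0.5–40 μM at six levels, in duplicate.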

[2] = tested on: β-galactosidase in CMV-LacZ C2C12 myotubes; assay: CMV-LacZ secondary screen in C2C12 myotubes (β-Gal stabilizing assay); settings: C2C12 CMV-LacZ myotubes, fold relative to DMSO
How it was run: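 β-Gal level was the read-out, measured in a clonal C2C12 line expressing LacZ from a CMV promoter. Dose-response curves used six concentrations, 0.5 μM up to 40 μM, with duplicate points.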

[3] = tested on: α7 integrin (LacZ reporter in α7βgal+/− myoblasts); assay: Myoblast α7+/LacZ integrin FDG assay (Burkin assay in myoblasts, 96-well); settings: α7+/LacZ myoblasts, 96-well
[4] = tested on: α7 integrin (LacZ reporter in α7+/LacZ myotubes); assay: Myotube α7 integrin FDG assay (Burkin assay in myotubes, 96-well); settings: myotubes

Structure (SMILES) | CMV-LACZ in Myoblasts (β-galactosidase activity relative to DMSO) ([1]; 0.5 uM) | CMV-LACZ in Myoblasts (β-galactosidase activity relative to DMSO) ([1]; 1 uM) | CMV-LACZ in Myoblasts (β-galactosidase activity relative to DMSO) ([1]; 5 uM) | CMV-LACZ in Myoblasts (β-galactosidase activity relative to DMSO) ([1]; 10 uM) | CMV-LACZ in Myoblasts (β-galactosidase activity relative to DMSO) ([1]; 20 uM) | CMV-LACZ in Myoblasts (β-galactosidase activity relative to DMSO) ([1]; 40 uM) | CMV-LACZ in Myotubes, signal relative to DMSO ([2]; 0.5 uM) | CMV-LACZ in Myotubes, signal relative to DMSO ([2]; 1 uM) | CMV-LACZ in Myotubes, signal relative to DMSO ([2]; 5 uM) | CMV-LACZ in Myotubes, signal relative to DMSO ([2]; 10 uM) | CMV-LACZ in Myotubes, signal relative to DMSO ([2]; 20 uM) | CMV-LACZ in Myotubes, signal relative to DMSO ([2]; 40 uM) | Burkin Assay in Myoblasts, signal relative to DMSO ([3]; 0.5 uM) | Burkin Assay in Myoblasts, signal relative to DMSO ([3]; 1 uM) | Burkin Assay in Myoblasts, signal relative to DMSO ([3]; 5 uM) | Burkin Assay in Myoblasts, signal relative to DMSO ([3]; 10 uM) | Burkin Assay in Myoblasts, signal relative to DMSO ([3]; 20 uM) | Burkin Assay in Myoblasts, signal relative to DMSO ([3]; 40 uM) | Burkin Assay in Myotubes, α7 integrin LacZ reporter signal relative to DMSO ([4]; 0.5 uM) | Burkin Assay in Myotubes, α7 integrin LacZ reporter signal relative to DMSO ([4]; 1 uM) | also measured
CN(CCC1CCCCO1)C(=O)CCc1nnc(CCCCc2ccccc2)o1 (stereo not drawn) [MLS000735021-01] | 0.8683 | 1.1646 | 0.9756 | 0.9907 | 1.2130 | 0.9767 | 1.0105 | 1.0221 | 0.9548 | 0.9616 | 1.0378 | 1.0778 | 0.9402 | 0.9246 | 0.9982 | 0.9765 | 1.025 | 0.9941 | 1.013 | 1.009 | Burkin Assay in Myotubes, α7 integrin LacZ reporter signal relative to DMSO ([4]; 5 uM): 0.9137; Burkin Assay in Myotubes, α7 integrin LacZ reporter signal relative to DMSO ([4]; 10 uM): 1.006; Burkin Assay in Myotubes, α7 integrin LacZ reporter signal relative to DMSO ([4]; 20 uM): 0.8444; Burkin Assay in Myotubes, α7 integrin LacZ reporter signal relative to DMSO ([4]; 40 uM): 0.8523
O=C(N/N=C/c1c[nH]c2ccccc12)c1cc(Cl)ccc1O [MLS001196572-01] | 1.0105 | 1.3172 | 1.0605 | 0.9456 | 1.0767 | 1.0778 | 0.9632 | 0.9379 | 0.9853 | 1.0223 | 1.1456 | 1.1422 | 0.8826 | 0.7626 | 1.224 | 0.9483 | 0.9362 | 0.9345 | 0.9236 | 0.8882 | Burkin Assay in Myotubes, α7 integrin LacZ reporter signal relative to DMSO ([4]; 5 uM): 1.148; Burkin Assay in Myotubes, α7 integrin LacZ reporter signal relative to DMSO ([4]; 10 uM): 0.9294; Burkin Assay in Myotubes, α7 integrin LacZ reporter signal relative to DMSO ([4]; 20 uM): 0.9805; Burkin Assay in Myotubes, α7 integrin LacZ reporter signal relative to DMSO ([4]; 40 uM): 0.7181
CC(C)(C)c1csc(NC(=O)c2cccnc2)n1 [MLS001164432-01] | 0.9600 | 0.7842 | 1.1387 | 1.3183 | 1.1059 | 1.1289 | 0.9248 | 1.3543 | 0.9500 | 1.2418 | 1.1358 | 1.1179 | 1.248 | 1.1813 | 1.091 | 1.067 | 0.7137 | 0.6622 | 0.8982 | 0.9509 | Burkin Assay in Myotubes, α7 integrin LacZ reporter signal relative to DMSO ([4]; 5 uM): 0.9878; Burkin Assay in Myotubes, α7 integrin LacZ reporter signal relative to DMSO ([4]; 10 uM): 0.9985; Burkin Assay in Myotubes, α7 integrin LacZ reporter signal relative to DMSO ([4]; 20 uM): 0.7121; Burkin Assay in Myotubes, α7 integrin LacZ reporter signal relative to DMSO ([4]; 40 uM): 0.8464
